Values quoted from earlier work as cited in US20210176995A1, “Disinfection Composition Comprising Tartaric Acid and Lactic Acid” (Wiping Systems ApS, priority 2016, published 2021).

Test system: Aspergillus b., Bacillus S., Cereus and Clostridium spores
Conditions: surfaces

| Compound | killing of Aspergillus b., Bacillus S., Cereus and Clostridium spores |
| --- | --- |
| CCCCCCCCCC[N+](C)(C)CCCCCCCCCC.[Cl-] [DDAC] | can't be killed |
| CCO [alcohol, ethanol] | can't be killed |
| PHMB | can't be killed |
